We go through two compounds from patent US7132554B2, “Therapeutic synergy of anti-cancer compounds” (Bristol-Myers Squibb Company, priority 2004, dated 2006).

Each structure is given as a SMILES string.

Series [1] is described as follows: Phase I clinical trial, weekly schedule of administration. The format is in vivo, human. The text has this:
The preclinical activity of Compound Ia was observed using several different schedules, with an intermittent administration regimen being optimal in one carefully examined tumor model. […] Heavily pretreated patients, typically having received two or three prior chemo/radiotherapies, have responded to weekly Compound Ia. All but one of the several responding patients had NSCLC, and all but one of these had previously received either a parenteral taxane or a small molecule anti-EGFR compound, gefitinib, or both. The purpose of our current investigations was to evaluate this oral taxane versus preclinical human tumor models using a multiple administration treatment regimen, in combination with an inhibitor of EGFR.

Series [2] in a line: Tolerability (body weight change, deaths, MTD) in nude mice bearing GEO tumors. The class given is in vivo. As for the experimental part: (§1) Compounds. The oral taxane (Ia) was synthesized by Bristol-Myers Squibb (BMS) chemists. The compound was dissolved initially in equal portions of Cremophor EL and ethanol, followed by aqueous dilution to yield final ethanol and Cremophor EL concentrations of 10%.
(§2) Animals. Athymic (“nude”) mice, 5–6 weeks of age, purchased from Harlan Sprague Dawley (Indianapolis, Ind.), were quarantined for ˜2 weeks before their use for tumor propagation and drug efficacy testing. They were fed food and water ad libitum. All studies involving these animals were conducted in accordance with NIH (Bethesda, Md.) and Bristol Myers-Squibb animal care and use guidelines.
(§3) Definitions of MTD and OD have been published previously in the above-noted article. Therapeutic results were reported at the OD, i.e., that yielding the best effect without exceeding the MTD. Therapeutic synergy represents a therapeutic effect achieved with a tolerated regimen of a combination treatment that exceeds the optimal effect achieved at any tolerated dose of monotherapy associated with the same drugs used in the combination. Cured mice are defined as those whose tumors are ≦35 mg when assessed 10 tumor volume doubling times (based on control tumor growth between 500 mg and 1 g) post-termination of treatment. A regimen was described as “toxic” if more than one mouse died during or within 10 days following the final drug treatment, or anytime after the initiation of drug therapy whose tumor size at the time of death was below 1 g.

The nature of series [3]: Tolerability (body weight change, deaths, MTD) in nude mice bearing L2987 tumors. The class given is in vivo. Here is the method: as §1, §2, §3
Series [4] has as its system Human L2987 lung carcinoma xenografts. As to the kind of experiment: Antitumor testing versus s.c. L2987 lung carcinoma xenografts in nude mice. The class given is in vivo. The conditions noted are these: for T-C: tumor target 1.0 g. Here is the method: as §1, §2
(§4) Tumors. Human L2987 lung and GEO colon carcinomas were maintained in nude mice by serial s.c. passage. All efficacy testing involved tumors implanted s.c. in nude mice.
(§5) Antitumor Testing. A detailed description of the methods used to assess antitumor effects has been provided previously in Rose, W. C., Fairchild, C., and Lee, F. Y. F. Preclinical antitumor activity of two novel taxanes. Cancer Chemother. Pharmacol. 47: 97–105, 2001. […] Delays in tumor growth are also converted to log cell kill (LCK) values by methods described in the same article. Statistical evaluations of data were performed using Gehan's generalized Wilcoxon test for comparisons of time to reach tumor target size. Statistical significance was declared at P<0.05. Group sizes typically consisted of eight mice. Activity was defined as ≧1 LCK.
as §3

Series [5] has as its system Human GEO colon carcinoma xenografts. As to the kind of experiment: Antitumor testing versus s.c. GEO colon carcinoma xenografts in nude mice. Details: key: Treatment resulting in more than one death is described as “TOX” (i.e., toxic). The class given is in vivo. The conditions noted are these: q3dx6 from Day 11. As for the experimental part: as §1, §2, §4, §5, §3

For series [6] the test system is unchanged. The conditions noted are these: known from earlier work; cited from earlier work.
The mark [7] stands for this setting: confirmatory study, q3dx6 from Day 20, Compound Ia 40 mg/kg/adm p.o.
The mark [8] stands for this setting: confirmatory study, q3dx6 from Day 20, Compound Ia 60 mg/kg/adm p.o.
The mark [9] stands for this setting: pilot study, q3dx4 from Day 22, Compound Ia 40 mg/kg/adm p.o.
[10] abbreviates: pilot study, q3dx4 from Day 22, Compound Ia 60 mg/kg/adm p.o.

With `COC(=O)OC12COC1CC(O)C1(C)C(=O)C(OC(C)=O)C3=C(C)C(OC(=O)C(O)C(NC(=O)OC(C)(C)C)C(C)(C)C)CC(O)(C(OC(=O)c4ccccc4)C21)C3(C)C` (centres unmarked) [Compound Ia], in series [1], the Clinical toxicity entry was “manageable toxicity”. In addition, the MTD in series [2] (p.o., q3dx6) stood at 60 mg/kg/adm. Also, the “Average body weight change” value in series [2] (q3dx6 from Day 11, Compound Ia 40 mg/kg/adm p.o.) is -2.6 g; in series [2] (q3dx6 from Day 11, Compound Ia 60 mg/kg/adm p.o.) it was -1.8 g; in series [3] (setting [7]), 1.5 g; in series [3] (setting [8]) it was -0.9 g; in series [3] (setting [9]), 0.7 g; in series [3] (setting [10]), 1.0 g. Besides, in series [2] (q3dx6 from Day 11, Compound Ia 90 mg/kg/adm p.o.), the dead/total result was “(3/8)”. Moreover, the “MTD, cumulative exposure” value in series [3] (confirmatory study, 60 mg/kg/adm p.o. q3dx6, tolerated with minimal body weight loss) came out at 360 mg/kg. The “historical MTD, cumulative exposure” value in series [3] (p.o., established using a schedule similar to q3dx4) is “approximately 300 mg/kg”. Also, the “LCK (log cell kill)” value was 0.5 in series [4] (setting [7]); 1.0 in series [4] (setting [8]); 0.2 in series [4] (setting [9]); 0.6 in series [4] (setting [10]); 0.3 in series [5] (Compound Ia 40 mg/kg/adm p.o.); 0.7 in series [5] (Compound Ia 60 mg/kg/adm p.o.). Besides, the “LCK (log cell kill)” value in series [5] (Compound Ia 90 mg/kg/adm p.o.) is listed as “TOX”. For the same compound, the T-C in series [4] (setting [7]) stood at 14.5 days; in series [4] (setting [8]), 28.0 days; in series [4] (setting [9]) it was 5.5 days; in series [4] (setting [10]) it was 14.0 days; in series [5] (Compound Ia 40 mg/kg/adm p.o., tumor target 1.0 g), 4.0 days; in series [5] (Compound Ia 60 mg/kg/adm p.o., tumor target 1.0 g), 10.0 days. Further, in series [5] (Compound Ia 90 mg/kg/adm p.o.), the T-C result was “TOX”.

In the case of `COc1cc2ncnc(Nc3ccc(F)c(Cl)c3)c2cc1OCCCN1CCOCC1` [gefitinib], the “Responsiveness of the GEO tumor model” value in series [6] is “responsive”.
